Assay results as given in paper doi:10.1101/2025.01.23.634444v1, “The histidine kinase VraS orchestrates the cell-wall stress response in Staphylococcus aureus via its direct interaction with glycopeptides and β-lactams” (biorxiv, 2025).

Experiments:
VraS (VraS-H6x) [1] = target: T1, VraS (VraS-H6x) (Staphylococcus aureus, UniProt A0A0H2XJC3); assay: biochemical
VraS (VraS-H6x) [2] = target: T1, VraS (VraS-H6x); assay: saturation transfer difference NMR; assay type: binding; parameters: full-length, C-terminal His6 tag kept, codon-optimised synthetic gene, pET24a(+), expressed in E. coli BL21 Star (DE3) membranes, purified in DDM, reconstituted in liposomes; 347 residues, 40,867 Da tagged; dimer in DDM; conditions: 20 µM VraS, 400 µM ampicillin, sodium phosphate pH 7.4, 280 mM NaCl, 6 mM KCl, 0.01% DDM, 10% D2O

T1 sequence (A0A0H2XJC3 entry or part of it): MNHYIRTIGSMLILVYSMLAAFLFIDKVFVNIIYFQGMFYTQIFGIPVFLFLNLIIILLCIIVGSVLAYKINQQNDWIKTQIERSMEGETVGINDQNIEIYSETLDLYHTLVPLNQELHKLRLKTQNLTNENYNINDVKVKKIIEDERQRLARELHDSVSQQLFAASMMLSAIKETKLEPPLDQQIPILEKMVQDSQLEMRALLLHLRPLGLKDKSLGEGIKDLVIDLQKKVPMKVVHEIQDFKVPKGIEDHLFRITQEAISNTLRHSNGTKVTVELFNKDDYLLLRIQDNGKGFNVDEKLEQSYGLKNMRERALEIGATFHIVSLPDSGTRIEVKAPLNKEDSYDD

| SMILES | IC50 (VraS (VraS-H6x) [1]) | STD (VraS (VraS-H6x) [2]) |
| --- | --- | --- |
| CN[C@H](CC(C)C)C(=O)N[C@H]1C(=O)N[C@@H](CC(N)=O)C(=O)N[C@H]2C(=O)N[C@H]3C(=O)N[C@H](C(=O)N[C@H](C(=O)O)c4cc(O)cc(O)c4-c4cc3ccc4O)[C@H](O)c3ccc(c(Cl)c3)Oc3cc2cc(c3O[C@@H]2O[C@H](CO)[C@@H](O)[C@H](O)[C@H]2O[C@H]2C[C@](C)(N)[C@H](O)[C@H](C)O2)Oc2ccc(cc2Cl)[C@H]1O [vancomycin] | 1600 ± 300 µM |  |
| CC1(C)S[C@@H]2[C@H](NC(=O)[C@H](N)c3ccccc3)C(=O)N2[C@H]1C(=O)O [ampicillin] |  | the difference spectrum demonstrated the interaction of ampicillin with VraS |
